Data reported in patent US8846111B2, “Compositions and methods for establishing and/or maintaining pregnancy” (Alltech, Inc., priority 2007, dated 2014).

Test system: gene encoding relaxin
Assay: AFFYMETRIX chicken genome array, oviduct RNA of hens fed selenium: relaxin
Format: in vivo
Conditions: 0.3 ppm selenium in diet, over forty weeks, relative to selenium deficient animals
Source text: In an effort to examine possible benefits of administration of selenium on female reproductive performance, hens were randomly selected from a broiler-breeder flock housed at Coldstream poultry facility, University of Kentucky. The hens were maintained on a selenium-deficient diet from 6 weeks of age until 22 weeks of age and were then placed on the following dietary treatments for over forty weeks until the time of sampling: 1) Control, selenium-deficient, Torula yeast-based diet (0.02 ppm selenium); 2) The control diet supplemented with 0.3 ppm selenium from sodium selenite; and 3) The control diet supplemented with 0.3 ppm selenium from SEL-PLEX. Hens were taken from each of the three experimental groups, their oviducts removed, flash-frozen and stored at −80° C. prior to RNA isolation.
Labeled RNA preparations from oviduct were hybridized with AFFYMETRIX chicken genome arrays containing 38,000 probe sets using standard methodology.

O=[Se](O)O [sodium selenite]
relaxin gene expression, upregulation: no significant effect
